Measurements from paper PMC11183015, “In vivo stable ^211At-labeled prostate-specific membrane antigen-targeted tracer using a neopentyl glycol structure” (EJNMMI Radiopharmacy and Chemistry, 2024).
pIC50: −log10 of the molar value. Values belong to the compound of their own block, whether it stands above or below them.

What was measured:
[1] = Biodistribution of radioactivity in normal mice; assay type: in vivo, mouse; conditions: normal ddY mice, i.v.
Experimental: Six-week-old male ddY mice were injected via the tail vein with each radiolabeled PSMA derivative. Animals were sacrificed and the organs were dissected at 10 min, 1 h, 3 h, and 6 h after injection. Metabolic cages were used for housing normal mice. The tissues of interest were excised and weighed, and the radioactivity counts in each tissue were determined using an auto-well gamma counter. Each value was expressed as the mean percent injected dose/g tissue ± SD for a group of 3–5 animals, except those for the stomach, intestine, and thyroid.

PSMA = PSMA (Homo sapiens, UniProt Q04609); experiment: Competitive inhibition of [125I]DCIT binding to LNCaP cells; set-up: endogenous in cells; host or cells: LNCaP (human prostate cancer cell line, RIKEN BRC); conditions: competitor [125I]DCIT, 37 °C, 1 h
Chain of PSMA (Q04609 whole entry): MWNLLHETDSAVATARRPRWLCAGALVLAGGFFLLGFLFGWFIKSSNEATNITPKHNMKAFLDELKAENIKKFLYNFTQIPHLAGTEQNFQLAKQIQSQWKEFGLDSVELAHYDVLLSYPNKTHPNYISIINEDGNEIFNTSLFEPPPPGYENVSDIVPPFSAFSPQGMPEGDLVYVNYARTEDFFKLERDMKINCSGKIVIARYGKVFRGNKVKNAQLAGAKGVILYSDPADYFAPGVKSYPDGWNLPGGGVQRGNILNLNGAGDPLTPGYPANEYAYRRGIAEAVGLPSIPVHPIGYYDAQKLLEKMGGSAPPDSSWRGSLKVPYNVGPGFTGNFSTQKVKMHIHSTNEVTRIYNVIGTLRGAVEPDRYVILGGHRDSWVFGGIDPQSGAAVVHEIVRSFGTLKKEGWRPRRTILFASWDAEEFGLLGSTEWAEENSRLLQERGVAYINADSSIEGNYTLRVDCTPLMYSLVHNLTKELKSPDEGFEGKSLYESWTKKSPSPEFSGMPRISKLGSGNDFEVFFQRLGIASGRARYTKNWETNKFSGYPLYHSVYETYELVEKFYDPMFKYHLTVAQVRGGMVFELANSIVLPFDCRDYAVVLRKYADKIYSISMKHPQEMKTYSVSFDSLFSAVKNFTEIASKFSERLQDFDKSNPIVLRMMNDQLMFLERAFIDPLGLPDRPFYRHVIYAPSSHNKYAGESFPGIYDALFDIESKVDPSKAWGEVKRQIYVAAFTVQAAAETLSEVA
Experimental: The human prostate cancer cell line LNCaP was provided by RIKEN BioResource Center (BRC) through the National BioResource Project of MEXT/AMED, Japan. LNCaP cells were cultured according to protocols prescribed by RIKEN BRC. LNCaP cells were seeded in 24-well plates (~ 1.5 × 10^5 cells/500 µL/well) coated with 0.01% poly-L-lysine (Sigma-Aldrich, Tokyo). After washing twice with assay medium (RPMI 1640 supplemented with 0.5% BSA), 250 µL of assay medium was added to each well. Each PSMA derivative and [^125I]DCIT dissolved in assay medium (250 µL) were added to the well, and the plates were then incubated at 37 °C for 1 h. After removing the assay medium, the cells were washed twice with assay medium (250 µL × 2). All cells were lysed with 1 M NaOH (500 µL), and the solution was collected. The cells were washed twice with PBS (250 µL × 2), and the solution was mixed with the previous solution. The radioactivity in the solution was measured using an auto-well gamma counter. The IC50 value was calculated by fitting with nonlinear regression using GraphPad Prism 8.4.3 (GraphPad Software, Inc., San Diego).

LNCaP cell xenografts = experiment: Biodistribution of radioactivity in tumor-bearing mice; assay type: in vivo, mouse; conditions: LNCaP tumor-bearing BALB/c-nu/nu mice
Experimental: Animal studies were conducted in accordance with the institutional guidelines approved by the Chiba University Animal Care Committee (Permit No. 4–183). Five-week-old male ddY mice and BALB/c-nu/nu mice were purchased from Japan SLC Inc. (Hamamatsu, Japan). LNCaP cells (5.0 × 10^6 cells) were suspended in 100 μL of PBS and Matrigel (BD Biosciences, Franklin Lakes, NJ, USA) in a 1:1 ratio. Tumor xenograft models were prepared via subcutaneous injection of this LNCaP cell suspension into BALB/c nude mice.
Biodistribution studies were conducted using male BALB/c-nu/nu mice bearing LNCaP cell xenografts at 1 and 3 h postinjection of [^211At]At-NpG-D-PSMA (100 µL, 37 kBq) and 1 and 6 h postinjection of ^125I-labeled PSMA derivative (100 µL, 11.1 kBq). In the blocking study, [^125I]I-NpG-D-PSMA was coinjected with 2-PMPA (50 mg/kg weight) into tumor-bearing mice via the tail vein. At 1 h postinjection, the mice were sacrificed. The tissues of interest were excised and weighed, and the radioactivity counts in each tissue were determined using an auto-well gamma counter. Each value was expressed as the mean percent injected dose/g tissue ± SD for a group of 3–5 animals, except those for the stomach, intestine, and thyroid.

Structure (SMILES): O=C(O)CCC(NC(=O)NC(CCCCNC(=O)C(Cc1ccc2ccccc2c1)NC(=O)C(CCC(=O)O)NC(=O)C(CCC(=O)O)NC(=O)COCC(CO)(CO)CI)C(=O)O)C(=O)O [I-NpG-L-PSMA]
pIC50 (PSMA): 8.39

Structure (SMILES): O=C(O)CCC(NC(=O)NC(CCCCNC(=O)C(Cc1ccc2ccccc2c1)NC(=O)C(CCC(=O)O)NC(=O)C(CCC(=O)O)NC(=O)COCC(CO)(CO)CI)C(=O)O)C(=O)O [I-NpG-D-PSMA]
pIC50 (PSMA): 8.22

Structure (SMILES): O=C([O-])CN1CCN(CC(=O)[O-])CCN(CC(=O)NC[C@H]2CC[C@H](C(=O)N[C@@H](Cc3ccc4ccccc4c3)C(=O)NCCCC[C@H](NC(=O)N[C@@H](CCC(=O)O)C(=O)O)C(=O)O)CC2)CCN(CC(=O)[O-])CC1.[Ga+3] [Ga-PSMA-617, reference compound]
pIC50 (PSMA): 8.12

Results, then the compound that gave them:

Radioactivity in Blood ([1]; 10 min): 3.84 ± 0.55 %ID/g
Radioactivity in Bone ([1]; 10 min): 1.54 ± 0.19 %ID/g
Radioactivity in Heart ([1]; 10 min): 1.51 ± 0.13 %ID/g
Radioactivity in Intestine ([1]; 10 min): 1.58 ± 0.17 %ID
Radioactivity in Kidney ([1]; 10 min): 82.9 ± 12.2 %ID/g
Radioactivity in Liver ([1]; 10 min): 0.98 ± 0.13 %ID/g
Radioactivity in Lung ([1]; 10 min): 3.52 ± 0.29 %ID/g
Radioactivity in Muscle ([1]; 10 min): 1.34 ± 0.18 %ID/g
Radioactivity in Neck ([1]; 10 min): 0.03 ± 0.01 %ID
Radioactivity in Pancreas ([1]; 10 min): 1.20 ± 0.22 %ID/g
Radioactivity in Spleen ([1]; 10 min): 1.76 ± 0.68 %ID/g
Radioactivity in Stomach ([1]; 10 min): 0.32 ± 0.03 %ID
Radioactivity in Blood ([1]; 1 h): 0.26 ±0.15 %ID/g
Radioactivity in Bone ([1]; 1 h): 0.20 ± 0.09 %ID/g
Radioactivity in Intestine ([1]; 1 h): 0.83 ± 0.25 %ID
Radioactivity in Kidney ([1]; 1 h): 11.1 ± 3.22 %ID/g
Radioactivity in Liver ([1]; 1 h): 0.15 ± 0.03 %ID/g
Radioactivity in Lung ([1]; 1 h): 0.26 ± 0.12 %ID/g
Radioactivity in Muscle ([1]; 1 h): 0.15 ± 0.07 %ID/g
Radioactivity in Neck ([1]; 1 h): 0.01 ± 0.01 %ID
Radioactivity in Pancreas ([1]; 1 h): 0.11 ± 0.04 %ID/g
Radioactivity in Spleen ([1]; 1 h): 0.12 ± 0.08 %ID/g
Radioactivity in Stomach ([1]; 1 h): 0.57 ± 0.31 %ID
Radioactivity in Heart ([1]; 3 h): 0.02 ± 0.03 %ID/g
Radioactivity in Intestine ([1]; 3 h): 0.21 ± 0.09 %ID
Radioactivity in Kidney ([1]; 3 h): 1.12 ± 0.34 %ID/g
Radioactivity in Liver ([1]; 3 h): 0.06 ± 0.00 %ID/g
Radioactivity in Lung ([1]; 3 h): 0.03 ± 0.02 %ID/g
Radioactivity in Muscle ([1]; 3 h): 0.02 ± 0.02 %ID/g
Radioactivity in Neck ([1]; 3 h): 0.00 ± 0.00 %ID
Radioactivity in Stomach ([1]; 3 h): 0.03 ± 0.02 %ID
Radioactivity in Intestine ([1]; 6 h): 0.34 ± 0.17 %ID
Radioactivity in Kidney ([1]; 6 h): 1.06 ± 0.42 %ID/g
Radioactivity in Liver ([1]; 6 h): 0.05 ±0.01 %ID/g
Radioactivity in Lung ([1]; 6 h): 0.02 ± 0.02 %ID/g
Radioactivity in Muscle ([1]; 6 h): 0.02 ± 0.02 %ID/g
Radioactivity in Neck ([1]; 6 h): 0.00 ± 0.00 %ID
Radioactivity in Stomach ([1]; 6 h): 0.05 ± 0.03 %ID
Radioactivity in Feces ([1]; 6 h, metabolic cages): 0.19 ± 0.12 %ID
Radioactivity in Urine ([1]; 6 h, metabolic cages): 66.7 ± 15.8 %ID
Structure (SMILES): O=C([O-])CN1CCN(CC(=O)[O-])CCN(CC(=O)NC[C@H]2CC[C@H](C(=O)N[C@@H](Cc3ccc4ccccc4c3)C(=O)NCCCC[C@H](NC(=O)N[C@@H](CCC(=O)O)C(=O)O)C(=O)O)CC2)CCN(CC(=O)[O-])CC1.[67Ga+3] [[^67Ga]Ga-PSMA-617, reference compound]

Radioactivity in Blood (LNCaP cell xenografts; 1 h): 0.41 ± 0.10 %ID/g
Radioactivity in Bone (LNCaP cell xenografts; 1 h): 0.40 ± 0.22 %ID/g
Radioactivity in Heart (LNCaP cell xenografts; 1 h): 0.65 ± 0.22 %ID/g
Radioactivity in Intestine (LNCaP cell xenografts; 1 h): 1.94 ± 0.22 %ID
Radioactivity in Kidney (LNCaP cell xenografts; 1 h): 181 ± 13.5 %ID/g
Radioactivity in Liver (LNCaP cell xenografts; 1 h): 0.38 ± 0.08 %ID/g
Radioactivity in Lung (LNCaP cell xenografts; 1 h): 1.84 ± 0.22 %ID/g
Radioactivity in Muscle (LNCaP cell xenografts; 1 h): 0.30 ± 0.12 %ID/g
Radioactivity in Neck (LNCaP cell xenografts; 1 h): 0.04 ± 0.03 %ID
Radioactivity in Pancreas (LNCaP cell xenografts; 1 h): 0.95 ± 0.48 %ID/g
Radioactivity in Spleen (LNCaP cell xenografts; 1 h): 11.8 ± 1.26 %ID/g
Radioactivity in Stomach (LNCaP cell xenografts; 1 h): 0.37 ± 0.15 %ID
Radioactivity in Tumor (LNCaP cell xenografts; 1 h): 13.4 ± 3.17 %ID/g
Radioactivity in Blood (LNCaP cell xenografts; 3 h): 0.09 ± 0.02 %ID/g
Radioactivity in Bone (LNCaP cell xenografts; 3 h): 0.29 ± 0.18 %ID/g
Radioactivity in Heart (LNCaP cell xenografts; 3 h): 0.23 ± 0.08 %ID/g
Radioactivity in Intestine (LNCaP cell xenografts; 3 h): 1.74 ± 0.39 %ID
Radioactivity in Kidney (LNCaP cell xenografts; 3 h): 132 ± 37.8 %ID/g
Radioactivity in Liver (LNCaP cell xenografts; 3 h): 0.11 ± 0.04 %ID/g
Radioactivity in Lung (LNCaP cell xenografts; 3 h): 0.55 ± 0.06 %ID/g
Radioactivity in Muscle (LNCaP cell xenografts; 3 h): 0.13 ± 0.09 %ID/g
Radioactivity in Neck (LNCaP cell xenografts; 3 h): 0.05 ± 0.04 %ID
Radioactivity in Pancreas (LNCaP cell xenografts; 3 h): 0.27 ± 0.05 %ID/g
Radioactivity in Spleen (LNCaP cell xenografts; 3 h): 4.67 ± 3.27 %ID/g
Radioactivity in Stomach (LNCaP cell xenografts; 3 h): 0.55 ± 0.33 %ID
Radioactivity in Tumor (LNCaP cell xenografts; 3 h): 16.9 ± 8.45 %ID/g
Structure (SMILES): O=C(O)CCC(NC(=O)NC(CCCCNC(=O)C(Cc1ccc2ccccc2c1)NC(=O)C(CCC(=O)O)NC(=O)C(CCC(=O)O)NC(=O)COCC(CO)(CO)C[211At])C(=O)O)C(=O)O [[^211At]At-NpG-D-PSMA]
